# No end group written: not given here.
# Molecular target: T1, mu-opioid receptor (MOR) (Homo sapiens, UniProt P35372)
# T1 construct: expressed in transfected cells; host or cells: CHO-K1
# Assay: functional cellular cAMP assay on CHO-K1 cell lines expressing MOR, co-administration with orthosteric ligand
# Assay type: cell-based
# Conditions: for Allosteric activity level (%): 0% = reference agonist at EC20, 100% = maximum activity of reference agonist; for EC50: logEC50(M), log of molar EC50, CHO-K1 cells expressing MOR, cAMP
# Protocol: The properties and functionality of these peptidosteroids were validated using standard experimental methods. To evaluate their allosteric modulation capabilities, functional cellular assays were conducted on CHO-K1 cell lines expressing MOR. These assays utilized fluorescent techniques to measure intracellular cAMP levels as a marker of receptor activity.
# The peptidosteroids were tested in co-administration with orthosteric ligands, such as morphine and DAMGO, to assess their ability to influence receptor signaling.
# The table below provides additional data on the binding motifs (Candidates 1 and 2) and the resulting peptidomimetics (Candidate 3), offering a detailed comparison of their activity. The percentage values are normalized such that 0% corresponds to the activity of the reference agonist at EC20, while 100% represents the maximum activity of the reference agonist.
# T1 sequence (P35372 whole entry): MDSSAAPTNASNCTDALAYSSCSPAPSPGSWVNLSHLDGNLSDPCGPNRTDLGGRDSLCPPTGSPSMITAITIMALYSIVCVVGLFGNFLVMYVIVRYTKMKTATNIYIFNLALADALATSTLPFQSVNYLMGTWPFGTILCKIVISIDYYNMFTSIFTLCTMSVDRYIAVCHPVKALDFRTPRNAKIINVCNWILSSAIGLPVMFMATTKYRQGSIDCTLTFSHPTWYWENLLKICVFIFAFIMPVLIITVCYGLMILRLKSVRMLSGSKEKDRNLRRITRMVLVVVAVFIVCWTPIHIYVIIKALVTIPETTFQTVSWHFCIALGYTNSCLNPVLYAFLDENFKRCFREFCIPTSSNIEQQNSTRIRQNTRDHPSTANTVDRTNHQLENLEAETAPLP
Substance,Allosteric activity level (%) (agonist present DAMGO),Allosteric activity level (%) (agonist present morphine),EC50 (agonist present DAMGO (EC20)) [M],EC50 (agonist present morphine) [M]
"VCAVGLWGNWLVM [sequence-1, VCAVGLWGNWLVM]",23.64,21.67,4.57e-06,1e-06
"YPWFYL [sequence-4, YPWFYL]",24.64,,1.35e-06,

# Source: patent publication US20250215051A1, “Transmembrane Allosteric Short Peptides Modulating Human Mu-Opioid Receptor for Analgesic Effects and Covalent Steroid Modifications of Transmembrane Allosteric Peptides for Enhanced Mu-Opioid Receptor Interaction in Chronic Pain Therapies” (Mu42 SPOLKA Z OGRANICZONA ODPOWIEDZIALNOSCIA, priority 2023, published 2025)
